Consider three compounds from ChEMBL document CHEMBL1140977, “Synthesis and screening of a cyclic peptide library: discovery of small-molecule ligands against human prolactin receptor” (Bioorg Med Chem, 2009).

Activity calls are given as the source filed them. The rule behind the calls is not given here. Square brackets hold non-standard residues; d marks the D form. Peptide text beside a SMILES is read from it. NMeL = CN[C@@H](CC(C)C)C(=O)O

Assay [1] has as its target T1, Prolactin receptor (Homo sapiens) (UniProt P16471).
T1 sequence (whole entry): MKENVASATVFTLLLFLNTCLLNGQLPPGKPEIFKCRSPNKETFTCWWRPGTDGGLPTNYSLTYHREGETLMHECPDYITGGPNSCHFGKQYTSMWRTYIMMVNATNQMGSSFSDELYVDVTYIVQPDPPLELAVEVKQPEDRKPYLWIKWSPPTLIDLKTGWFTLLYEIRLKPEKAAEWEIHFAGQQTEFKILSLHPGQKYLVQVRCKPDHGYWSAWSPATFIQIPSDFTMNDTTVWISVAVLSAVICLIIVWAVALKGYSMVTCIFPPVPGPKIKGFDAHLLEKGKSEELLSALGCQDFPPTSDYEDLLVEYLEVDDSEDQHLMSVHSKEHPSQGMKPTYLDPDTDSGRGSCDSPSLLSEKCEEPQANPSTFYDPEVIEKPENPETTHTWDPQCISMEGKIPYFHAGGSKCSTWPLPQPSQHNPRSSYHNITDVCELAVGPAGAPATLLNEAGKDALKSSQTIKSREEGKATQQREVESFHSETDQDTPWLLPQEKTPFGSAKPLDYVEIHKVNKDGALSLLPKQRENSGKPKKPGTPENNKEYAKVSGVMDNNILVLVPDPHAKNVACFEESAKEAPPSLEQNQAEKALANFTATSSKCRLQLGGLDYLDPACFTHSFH
The assay can be described thus: (§1) Binding affinity to human prolactin receptor extracellular binding domain by surface plasmon […].

The target in another assay is T2, Prolactin receptor (Homo sapiens, UniProt P16471).
T2 sequence (P16471 whole entry): T1 sequence (whole entry)
The description is as §1.

What is called Kd is the concentration at which binding is half-saturated. Higher therefore signals a looser complex.

On to `CC(C)C[C@H]1C(=O)N[C@@H](CCC(N)=O)C(=O)N[C@@H](CCCNC(=N)N)C(=O)N[C@@H](Cc2ccccc2)C(=O)N[C@@H](C(C)C)C(=O)N[C@@H](CCC(=O)O)C(=O)N[C@@H](C)C(=O)NCC(=O)N1C` (cyclo(AG[NMeL]QRFVE)), for which the outcome in assay [1] was inactive.
Take `CC(C)[C@@H]1NC(=O)[C@H](CCCNC(=N)N)NC(=O)[C@H](CO)NC(=O)[C@H](CCC(N)=O)NC(=O)[C@H](Cc2ccc(O)cc2)NC(=O)[C@H](CCCNC(=N)N)NC(=O)[C@H](C)NC(=O)[C@H](CCC(=O)O)NC1=O` (cyclo(ARYQSRVE)): the Kd at Prolactin receptor turned out to be 2000 nM.
Still for that read-out and setting: as for `CC(C)C[C@H]1NC(=O)[C@@H](C)NC(=O)[C@H](CCC(=O)O)NC(=O)[C@H](C(C)C)NC(=O)[C@H](CCCNC(=N)N)NC(=O)[C@H](Cc2ccc(O)cc2)NC(=O)[C@H](CO)NC(=O)[C@H](Cc2ccc(O)cc2)NC1=O`, the figure is 3000 nM.
